Structures can show the parent of a compound that is named as a salt. Where two headings read alike, the source gives them in different places.
Key:
[1] = system: HIV-1 replication in human PBM cells; assay: microbe, parasite or virus in culture; format: cell-based
Procedure: Cells and viruses. […] Antimicrobial Agents Chemother 1992;36(11): 2423-2431.
Cell pellets were washed, centrifuged, lysed and the proviral DNA extracted as previously described. Cytotoxicity of the compounds was determined using the Promega Cell Titer 96 dye uptake assay (Madison, Wis.) in 1-2 day PHA-stimulated PBM cells after 5 days in culture. The median effective concentration (EC50) and inhibitory concentration (IC50) were derived from the computer-generated median effect plot of the dose-effect data, as described previously.

[2] = system: recombinant HIV-1 virus isolates; format: cell-based
Excerpt: The aim of the study was to determine the potency of the inhibitory effect of a new generation of NRTIs on Multi Drug Resistant isolates and to compare it with their effect on wild-type HIV-1 isolates. All recombinant viruses were taken from the VIRCO repository of phenotypically and genotypically characterized virus isolates. Hirsch et al. Antiretroviral Drug Resistance Testing in Adults with HIV Infection. JAMA; 1998: 79(24) 1984-1991. See also Pauwels et al. Comprehensive HIV drug Resistance monitoring using rapid, high-throughput phenotypic and genotypic assays with correlative data analysis. Antiviral Therapy, 1998: 3: 35 Abstract 51.
Phenotypic drug susceptibility determination of recombinant virus isolates is described in Hertogs et al. A Rapid Method for Simultaneous Detection of Phentypic Resistance to Inhibitors of Protease and Reverse Transcriptase in Recombinant HIV-1 Isolates from Patients Treated with Antiretroviral Drugs. Antimicrob. Agents Chemother. 1998; 42(2): 269-276. The basic principle of the Antivirogram® technology is the construction of chimeric HIV-1 strains composed of the protease (PR) and reverse transcriptase (RT) gene sequences which are isolated and amplified from patient viral RNA. Amplicons are subsequently transfected into CD4+T cells together with a standard laboratory isogenic (HXB2) HIV-1 DNA construct from which the PR/RT gene sequences were deleted. After homologous recombination, new viruses whose diversity reflects the original population amplified from the plasma are produced at high level from these cells.
The virus infectivity (CCID50) is determined by an end-point dilution method. The titer is calculated from the degree of infection, measured by the intensity of reporter-gene signal as generated by serial dilutions of the virus shock. The chimeric (clinical isolates and wild-type reference) viruses are then analyzed for their phenotypic sensitivity (i.e. susceptibility) to the different PR and RT-inhibitors in an automated reporter gene-based assay using serial dilutions of the compound. The standardisation of the Antivirogram®n assay allows for simultaneous testing of all clinically approved drugs in one 384-well microtiter plate. The experimental drugs are included in separate plates. Each plate contains multiple replicates of mock-infected wells, virus-infection control wells and blank (medium-only) well. All plates are tested in duplicate. 50% Inhibitory concentrations are calculated based on reporter signals obtained through optical reading of 384-well plates containing serial dilutions of compounds, a normalised quantity of virus and by taking into account all relevant control wells. Approval (or not) is done according to critical ranges and settings as described in the corresponding VIRCO Standard Operating Procedure.
A more detailed description of the protocol is as follows. Samples were stored frozen. […] To confirm the genotypic pattern, genotyping (ABI-sequencing) was performed after recombination and culture of the laboratory strains by analysis of cell viability, calculation of results (dose-response curves, IC50 values), and reporting of data.

Nc1ccn([C@@H]2CS[C@H](CO)O2)c(=O)n1 [3TC, (−)-β-2′,3′-dideoxy-3′-thiacytidine]
EC50 ([1]; Human immunodeficiency virus 1, PBMC, Table 2, human PBMC): 6.7 nM
EC90 ([1]; Human immunodeficiency virus 1, PBMC, Table 2, human PBMC, read-out: EC90): 51 nM
m ± SE (slope of median effect plot) ([1]; Table 2, human PBMC): 1.08 ± 0.15
fold Resistance ([2]; RT genotype D67D/N, K70R, M184V, G333E): >99
fold Resistance ([2]; RT genotype D67N, K70R, K219Q/K, 181C/Y): 3.7
fold Resistance ([2]; RT genotype K70R, K219Q): 1
fold Resistance ([2]; RT genotype M41L, D67N, K70R, K103N, L210W, T215Y, K219N/K): 8.25
fold Resistance ([2]; RT genotype M41L, L210L, T215Y, Y181C/Y, M184M/V): 3
fold Resistance ([2]; RT genotype M41L, L210W, T215Y): 0.4
fold Resistance ([2]; RT genotype M41L, T69S-V-T, L210W, T215Y, G333E): >65
fold Resistance ([2]; RT genotype M41L, T215Y, M184V): >99
fold Resistance ([2]; RT genotype T69G, Q151M, M184V/M): >65
fold Resistance ([2]; RT genotype T69I, K70R, Q151M, M184V): >65
fold Resistance ([2]; RT genotype T69S-E, M184I, T215Y): >65
fold Resistance ([2]; RT genotype T215Y): 1.5
fold Resistance ([2]; recombinant isolate, RT genotype K70R): 1

Nc1nc(N)c2ncn([C@H]3CO[C@@H](CO)O3)c2n1 [DAPD, β-D-dioxolanyl-2,6-diaminopurine]
EC50 ([1]; Table 3, human PBMC): 1810 nM
m ± SE (slope of median effect plot) ([1]; Table 3, human PBMC): 1.40 ± 0.14
EC90 ([1]; Table 3, human PBMC, read-out: EC90): 8680 nM

CC(C)(C)NC(=O)[C@@H]1CN(Cc2cccnc2)CCN1C[C@@H](O)C[C@@H](Cc1ccccc1)C(=O)N[C@H]1c2ccccc2C[C@H]1O [Indinavir, {1(1,S,2R),5(S)]-2,3,5-trideoxy-N-(2,3-dihydro-2-hydroxy-1H-inden-1-yl)-5-[2-[[(1,1-dimethylethyl)amino]carbonyl]4-(3-pyridinylmethyl)-1-piperazinyl]-2-(phenylmethyl)-D-erythro-pentoamide sulfate]
m ± SE (slope of median effect plot) [1]: 0.86 ± 0.17
EC90 ([1]; Human immunodeficiency virus 1, PBMC): 19 nM
inhibition at 1 µM ([1]; Human immunodeficiency virus 1, PBMC, 144 h, concentration 0.001 mM, day 6, read-out: Inhibition %): 29.9%
inhibition at 10 µM ([1]; Human immunodeficiency virus 1, PBMC, 144 h, concentration 0.01 mM, day 6, read-out: Inhibition %): 88.7%
EC50 ([1]; Human immunodeficiency virus 1, PBMC, Table 3A, human PBMC): 1.5 nM

— patent US6602664B2 (priority 1998, dated 2003)
